Measurements reported in US8420830B2, “Macrocyclic factor VIIa inhibitors useful as anticoagulants” (Bristol-Myers Squibb Company, priority 2006, dated 2013).
Counter-ions that a name gives are not always drawn. Like-named read-outs stand apart in the source and are kept apart here. One block for each compound: values may come before it.

Assays:
[1] = amide bond, BOP, CH2Cl2, 40.0 °C
[2] = amide bond; 16-membered ring; TFA; BOP/DMAP/Et3N; CH2Cl2/DMF; 40.0 °C; 2 steps
[3] = test system: patients with acute coronary syndromes; conditions: cited from earlier work
[4] = test system: patients undergoing coronary angioplasty; conditions: cited from earlier work
[5] = test system: patients undergoing total knee replacement; conditions: cited from earlier work
Factor VIIa = biological target: T1, Factor VIIa (Homo sapiens, UniProt P08709); test: Factor VIIa assay; format: biochemical; conditions: measured in the Factor VIIa assay described above; several values in a cell are repeat determinations
T1 construct: purchased Haematologic Technologies (purified) or Novo Nordisk (recombinant)
T1 sequence (P08709 213-466 limits assumed): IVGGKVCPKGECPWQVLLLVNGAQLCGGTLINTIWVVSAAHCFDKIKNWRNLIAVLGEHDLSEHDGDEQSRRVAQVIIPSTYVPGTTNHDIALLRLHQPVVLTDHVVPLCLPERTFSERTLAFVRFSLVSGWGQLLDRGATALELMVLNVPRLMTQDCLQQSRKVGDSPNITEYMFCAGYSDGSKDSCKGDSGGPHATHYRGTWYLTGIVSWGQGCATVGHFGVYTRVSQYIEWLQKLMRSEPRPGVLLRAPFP
T1 sequence (P08709 61-212 limits assumed): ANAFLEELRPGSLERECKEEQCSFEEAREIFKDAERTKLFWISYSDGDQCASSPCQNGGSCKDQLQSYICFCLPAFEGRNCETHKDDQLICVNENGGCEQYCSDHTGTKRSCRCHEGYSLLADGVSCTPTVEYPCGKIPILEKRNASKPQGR
T1 sequence (P13726 33-251 partner limits assumed): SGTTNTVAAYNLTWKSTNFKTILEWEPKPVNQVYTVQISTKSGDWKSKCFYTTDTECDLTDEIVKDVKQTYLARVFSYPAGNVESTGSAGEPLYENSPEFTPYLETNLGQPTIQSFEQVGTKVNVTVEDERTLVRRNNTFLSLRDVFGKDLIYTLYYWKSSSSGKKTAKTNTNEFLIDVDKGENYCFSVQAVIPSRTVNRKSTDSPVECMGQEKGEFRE

Compound: CC(C)S(=O)(=O)c1ccc2cc1CN(C)C(=O)[C@H](Nc1ccc3c(c1)C(=O)NCC3)c1ccc(cc1)CCCC(=O)N2
ring closure, yield of all isomers ([1]; from CNCc1cc(NC(=O)CCCc2ccc(C(Nc3ccc4c(c3)C(=O)NCC4)C(=O)O)cc2)ccc1S(=O)(=O)C(C)C, 5.11 mM, 7.0 h): 19.9%

Compound: CCS(=O)(=O)c1ccc2cc1CNC(=O)[C@H](Nc1ccc3c(c1)C(=O)NCC3)c1ccc(cc1)CCCC(=O)N2
ring closure, yield after HPLC [2]: 28.4% | ring closure, yield of all isomers ([1]; from CCS(=O)(=O)c1ccc(NC(=O)CCCc2ccc(C(Nc3ccc4c(c3)C(=O)NCC4)C(=O)O)cc2)cc1CNC(=O)OC(C)(C)C, 6.0 h, 2 steps): 28.4%

Compound: recombinant nematode anticoagulant protein c2 [rNAPc2]
magnitude and duration of ischemic events [3]: reduces magnitude and duration of ischemic events | systemic thrombin generation [4]: reduces systemic thrombin generation | deep vein thrombosis [5]: prevents deep vein thrombosis

Compound: CC(C)S(=O)(=O)c1ccc2cc1CN(C)C(=O)[C@H](Nc1ccc3c(c1)C(=O)NC3)c1ccc(cc1)CCCC(=O)N2
ring closure, yield of all isomers ([1]; from CNCc1cc(NC(=O)CCCc2ccc(C(Nc3ccc4c(c3)C(=O)NC4)C(=O)O)cc2)ccc1S(=O)(=O)C(C)C, 8.05 mM, 16.0 h): 31.8%

Compound: CCS(=O)(=O)c1ccc2cc1CNC(=O)[C@H](Nc1ccc3c(c1)C(=O)NC3)c1ccc(cc1)CCCC(=O)N2
ring closure, yield of all isomers ([1]; from CCS(=O)(=O)c1ccc(NC(=O)CCCc2ccc(C(Nc3ccc4c(c3)C(=O)NC4)C(=O)O)cc2)cc1CNC(=O)OC(C)(C)C, 6.6 mM, 6.0 h, 2 steps): 27.7%

More lines, now with the values ahead:

Ki (Factor VIIa): 1.95 nM
Compound: Cc1cc2ccc1[C@@H](C)COC(=O)Nc1ccc(N3CCCCS3(=O)=O)c(c1)CN(C)C(=O)[C@@H]2Nc1ccc2cc[nH]c(=O)c2c1 [Example 86, (2R,15R)-7-(1,1-Dioxo-1λ^6-perhydro-1,2-thiazin-2-yl)-4,15,17-trimethyl-2-(1-oxo-1,2-dihydro-isoquinolin-7-ylamino)-13-oxa-4,11-diaza-tricyclo[14.2.2.1^6,10]henicosa-1(19),6,8,10(21),16(20),17-hexaene-3,12-dione]

Ki (Factor VIIa): 27.6 nM
Compound: Cc1cc2ccc1[C@@H](C)CCC(=O)Nc1ccc(OC(F)(F)F)c(c1)CN(C)C(=O)[C@@H]2Nc1ccc2c(F)c[nH]c(=O)c2c1 (single isomer, unassigned) [Example 42]

Ki (Factor VIIa): 0.96 nM
Compound: CCc1cc2ccc1[C@@H](C)COC(=O)Nc1ccc(S(=O)(=O)C3CC3)c(c1)CN(C)C(=O)[C@@H]2Nc1ccc2cc[nH]c(=O)c2c1 [Example 18, (2R,15R)-7-Cyclopropanesulfonyl-17-ethyl-4,15-dimethyl-2-(1-oxo-1,2-dihydro-isoquinolin-7-ylamino)-13-oxa-4,11-diaza-tricyclo[14.2.2.1^6,10]henicosa-1(19),6,8,10(21),16(20),17-hexaene-3,12-dione]

Ki (Factor VIIa): 21.9 nM
Compound: COC(=O)N1CC(=O)Nc2ccc(S(=O)(=O)C(C)C)c(c2)CNC(=O)C(Nc2ccc3nc[nH]c(=O)c3c2)c2cc(C)c(c(C)c2)C1 (stereo not shown) [Example 117, 17,20-Dimethyl-3,12-dioxo-2-(4-oxo-3,4-dihydro-quinazolin-6-ylamino)-7-(propane-2-sulfonyl)-4,11,14-triaza-tricyclo[14.2.2.1^6,10]henicosa-1(19),6,8,10(21),16(20),17-hexaene-14-carboxylic acid methyl ester trifluoroacetate]

Ki (Factor VIIa): 1210 nM
Compound: Cc1cc2ccc1[C@@H](C)COC(=O)Nc1cccc(c1)CN(CCN)C(=O)[C@@H]2Nc1ccc2cc[nH]c(=O)c2c1 [Example 149, (2R,15R)-4-(2-Amino-ethyl)-15,17-dimethyl-2-(1-oxo-1,2-dihydro-isoquinolin-7-ylamino)-13-oxa-4,11-diaza-tricyclo[14.2.2.1^6,10]henicosa-1(19),6,8,10(21),16(20),17-hexaene-3,12-dione]
